Test results reported in PubChem BioAssay (NCI).
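These data come from cells grown in 96-well plates and exposed to compound for 48 hours at five concentrations. TGI is the concentration that stops growth completely.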

Tests used:
Test in all cases: NCI tumour cell line growth inhibition, 48 h
[1] = system: HCT-15 colon
[2] = system: RXF 393 renal
[3] = system: TK-10 renal
[4] = system: SF-268 CNS
[5] = system: M14 melanoma
[6] = system: SF-539 CNS
[7] = system: PC-3 prostate
[8] = system: HOP-62 NSCLC
[9] = system: COLO 205 colon
[10] = system: NCI-H23 lung
[11] = system: UO-31 renal
[12] = system: NCI-H522 lung

Compound	TGI [1] [µM]	TGI [2] [µM]	TGI [3] [µM]	TGI [4] [µM]	TGI [5] [µM]	TGI [6] [µM]	TGI [7] [µM]	TGI [8] [µM]	TGI [9] [µM]	TGI [10] [µM]	TGI [11] [µM]	TGI [12] [µM]
O=Cc1ccc(Oc2c3ccccc3nc3ccccc23)cc1	19.5	21.5	19.5	17.6	10.7	4.12	20.1	33.9	10.1			
FC1(F)SC2CCCCCCCCCCC2C1(F)F (stereo not given)	> 100	54	> 100	> 100	> 100		> 100	> 100	34.7	80.1	> 100	52.7
COc1ccc(C2=Nn3c(C)nnc3S/C2=C\c2ccc(-c3ccc([N+](=O)[O-])cc3)o2)cc1	27.7	22.8	34.3	47.1	48.2	25.6	59.5	> 100		28.5	29.8	23.8
O=C(O)Cc1ccc(-n2nnc3c(=O)[nH][nH]c(=O)c32)cc1	> 100		> 100		> 100		> 100	> 100	> 100	> 100	> 100	
COc1ccc(/C=C2\NC(=S)N(CN3CCOCC3)C2=O)cc1	> 100		> 100	> 100	> 100		> 100	> 100	> 100	> 100	> 100	
O=c1ccc2c(Cl)sc(Cl)c2[nH]1	> 100	> 100	> 100	> 100	> 100		> 100	> 100		> 100	> 100	> 100
CCOC(=O)C(C(=O)OCC)C(=S)NC1OC(COC(C)=O)C(OC(C)=O)C(OC(C)=O)C1OC(C)=O (stereo not given)	> 100	> 100		> 100	> 100	> 100		> 100	> 100	> 100	> 100	> 100
CSc1c(C#N)c(=O)n(N)c2n[nH]c(C)c12	> 100	> 100	> 100	> 100		> 100	> 100		> 100	> 100	> 100	> 100
CCOC(=O)C(/C=N/C(N)=S)=C(/O)c1ccccc1	> 100	> 100	> 100	> 100	> 100	> 100		> 100	> 100	> 100	> 100	
COc1ccc(-c2nc3ccccc3c(=O)[nH]2)cc1OC	> 100	68.1		60	> 100	80.5	> 100	> 100	> 100	> 100	> 100	
O=C(Nc1ccccn1)c1cc2c(cc1Cl)Sc1nccn1S2(=O)=O	> 100	93.9	> 100	> 100	> 100		> 100	> 100	83.5	82.6	94.9	> 100
COc1ccccc1N1C(=O)/C(=C\c2ccccc2)SC1c1cc(OC)c(OC)c(OC)c1 (stereo not given)	> 100		> 100	> 100	> 100		68.9	> 100	> 100	> 100	> 100	74.3
COc1ccc(C(CC(=O)c2ccc(O)cc2)C(C(=O)c2ccc(O)cc2)C(c2ccc(OC)cc2)C2C(=O)NC(=S)NC2=O)cc1 (stereo not given)	45.3		53.7	35.3	39.3		59.8	67.1	45.1		33.8	29.9
COC(=O)Cc1c(-c2c(CC(=O)OC)c3ccccc3n2C2OC(COC3OC(COC(C)=O)C(OC(C)=O)C(OC(C)=O)C3OC(C)=O)C(O)C(O)C2O)[nH]c2ccccc12 (stereo not given)	> 100		> 100		> 100	> 100	> 100	70.9	> 100	> 100	> 100	
O=CN/C=C\c1cc(O)ccc1O	23.7		> 64.7	> 57.8	> 50.3	> 49.6		60.2	29.5	> 56.1	29.1	10
C[C@H](N)C(=O)Nc1ccc(-c2nc3ccccc3s2)cc1Cl	62.4	30.2	14.7	43.7	19		27.3	26	26.4	39.2	22.9	46
COC(=O)CCC(=O)c1ccc2c(c1)CC1(Cc3ccccc3C1)C2		> 100	> 100		> 100	> 100	> 100	> 100	82.3	> 100	80.3	> 100
COc1cc2oc(=O)cc(C)c2c(OC)c1OC	> 100		> 100	> 100	> 100		> 100	> 100	> 100	> 100	> 100	
O=c1oc2ccc([N+](=O)[O-])cc2cc1-c1csc(-c2ccccc2)n1	> 100	> 100	> 100	> 100	> 100	> 100	> 100	> 100	> 100		> 100	> 100
Cc1cccc2c1CC1(Cc3c(C)cccc3C1=O)C2=O	> 100	> 100	> 100	> 100	> 100	> 100	> 100	> 100		> 100	> 100	> 100
CC(=O)Nc1ccc2cc3c(nc2n1)c1cccnc1n3S(=O)(=O)c1ccccc1	> 100	> 100	> 100	> 100	> 100		> 100	> 100	> 100	> 100	> 100	> 100
